According to patent publication US20260315606A1, “NOVEL COMPOUNDS CAPABLE OF INDUCING OSTEOGENIC DIFFERENTIATION” (AJOU UNIVERSITY INDUSTRY-ACADEMIC COOPERATION FOUNDATION, priority 2023, published 2026):

How the values were obtained:
MDM2 = biological target: T1, MDM2 (Homo sapiens, UniProt Q00987); test: Western blot (SDS-PAGE) of intracellular MDM2 protein degradation in hDPSCs; format: cell-based; settings: FIG. 2; selected treatment concentrations not given
T1 construct: degradation by nutlin-based CRBN-recruiting PROTACs, Western blot
T1 sequence (Q00987 whole entry): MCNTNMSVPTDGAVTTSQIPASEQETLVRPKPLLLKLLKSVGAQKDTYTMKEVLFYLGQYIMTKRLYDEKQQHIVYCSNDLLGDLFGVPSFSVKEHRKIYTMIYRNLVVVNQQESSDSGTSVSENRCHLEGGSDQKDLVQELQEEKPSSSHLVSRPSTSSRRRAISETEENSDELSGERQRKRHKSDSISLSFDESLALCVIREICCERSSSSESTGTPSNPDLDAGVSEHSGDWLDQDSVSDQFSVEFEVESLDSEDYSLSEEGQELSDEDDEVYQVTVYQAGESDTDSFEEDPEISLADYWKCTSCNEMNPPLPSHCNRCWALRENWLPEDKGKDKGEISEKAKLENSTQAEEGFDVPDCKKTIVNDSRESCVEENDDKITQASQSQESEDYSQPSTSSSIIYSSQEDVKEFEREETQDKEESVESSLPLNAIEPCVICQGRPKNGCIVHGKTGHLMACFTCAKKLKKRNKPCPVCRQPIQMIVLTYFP
T1 sequence (Q96SW2 whole entry partner): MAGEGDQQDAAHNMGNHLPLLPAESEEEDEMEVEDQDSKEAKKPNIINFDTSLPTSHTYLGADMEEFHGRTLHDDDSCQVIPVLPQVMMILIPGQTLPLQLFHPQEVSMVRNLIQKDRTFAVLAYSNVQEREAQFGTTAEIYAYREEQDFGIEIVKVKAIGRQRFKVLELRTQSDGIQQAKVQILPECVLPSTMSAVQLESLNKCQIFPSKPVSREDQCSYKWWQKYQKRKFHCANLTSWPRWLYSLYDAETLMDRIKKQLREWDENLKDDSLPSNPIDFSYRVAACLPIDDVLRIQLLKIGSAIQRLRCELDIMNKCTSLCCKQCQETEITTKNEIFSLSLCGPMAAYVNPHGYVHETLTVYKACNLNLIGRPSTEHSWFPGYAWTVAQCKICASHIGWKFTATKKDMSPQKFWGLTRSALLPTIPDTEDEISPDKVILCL
Description: Human dental pulp stem cell lines (hDPSCs) were treated with 14 types of synthesized MDM2-PROTACs (10 μM) for 1 hour and Western blot analysis using SDS-PAGE gel was performed to evaluate the intracellular MDM2 protein degradation capacity.

p53 = p53 activation in selection of compounds (FIG. 2); format: cell-based, human; settings: selected treatment concentrations not given

| Substance | MDM2 degradation (selected compounds) (MDM2) | p53 activation (selected compounds) (p53) |
| --- | --- | --- |
| 2-(4-(cis-4,5-bis(4-chlorophenyl)-2-(2-isopropoxy-4-methoxyphenyl)-4,5-dihydro-1H-imidazole-1-carbonyl)-2-oxopiperazin-1-yl)-N-(8-((2-(2,6-dioxo-opiperidin-3-yl)-1,3-dioxoisoindolin-4-yl)oxy)octyl)acetamide [Compound 6b] | effectively degrade MDM2 | activate p53 |
| 2-(4-(cis-4,5-bis(4-chlorophenyl)-2-(2-isopropoxy-oxopiperazin-1-yl)-N-(9-(2-(2,6-dioxopiperidin-3-yl)-1,3-dioxoisoindolin-4-yl)non-8-yn-1-yl) acetamide [Compound 16b] | effectively degrade MDM2 | activate p53 |
